# Measured values as given in patent publication US8809377B2, “Deubiquitinase inhibitors and methods for use of the same” (The Regents of the University of Michigan, priority 2010, dated 2014).
# How the values were obtained:
# [1] = test system: Vesicular Stomatitis Virus (VSV); format: cell-based
# [2] = test system: CML and melanoma xenografts; assay: Xenograft mouse models of CML and melanoma; format: in vivo
# p53 = p53 immunoblot; format: cell-based; settings: Z138 cells
# Procedure: (§1) Whole cell lysates were prepared by boiling and sonicating the cell pellets in 1× Laemmli reducing sample buffer. To prepare detergent soluble and insoluble fractions, cells were lysed in cold isotonic lysis buffer [10 mM Tris-HCl (pH 7.5), 0.5% Triton X-100, 150 mM NaCl along with Mini-Complete and PhosSTOP] for 15 min on ice and centrifuged 10 minutes at 20,000 RCF. The clarified supernatant was used as a source of the detergent soluble cell fraction. The detergent insoluble fraction was extracted by the sonication of residual pellet in equal volumes of boiling 1× Laemmli reducing sample buffer. Equal volumes of cellular lysate or equal protein amounts were electrophoresed on SDS-PAGE gels.
# An increase in p53 protein levels was observed upon WP1130 treatment. Co-treatment of Z138 cells with cycloheximide (50 μg/mL) and WP1130 confirmed the stabilization rather than induction of p53 protein. Furthermore, a rapid decline in MCL-1 levels upon WP1130 treatment was observed. To re-confirm the role played by USP9x and USP5 in regulating the levels of MCL-1 and p53 respectively, a siRNA based knockdown of USP9x and USP5 in HEK293T cells was performed.
# Sindbis virus = Sindbis virus plaque assay; settings: African green monkey epithelial cells (Vero), 5 μM, 30 min pre-treatment
# La Crosse virus (LaCV) = assay: La Crosse virus plaque assay; settings: human neurons (Be2-c), 5 μM, 30 min pre-treatment
# cellular DUB activity = assay: DUB activity of lysates from treated cells (Ub-AMC, Ub chain disassembly); format: cell-based
# Procedure: Cells were lysed in ice cold DUB buffer containing 50 mM Tris-HCl, pH 7.5, 0.5% NP-40, 5 mM MgCl2, 150 mM NaCl and 1 mM phenylmethylsulfonylfluoride. Briefly, 5 μg of clarified lysate from untreated or treated cells was incubated with 500 nM Ub-AMC in a 100 μL reaction volume at 37° C. and the release of AMC fluorescence was recorded at ex/em 380/480 using a spectrofluorometer. USP9x was immunoprecipitated from 500 μg of cell lysate and incubated in DUB buffer containing NEM, WP1130 or DMSO in a 100 μL reaction volume for 30 min. The reaction was initiated by the addition of 500 nM Ub-AMC and the release of AMC-fluorescence was recorded.
# In vitro disassembly of purified polyubiquitin chains (K-48/K-63 linked) was performed as previously described. Five μg of lysate from untreated or WP1130 treated cells were prepared in DUB buffer and incubated with K48- or K-63 linked chains (1 μg) for 10 min at 37° C. The extent of chain disassembly was assessed by ubiquitin immunoblotting.
# Inhibition of cellular deubiquitinases could lead to an increase in high molecular weight ubiquitinated proteins in the absence of proteasome inhibition. […] To directly assess the impact of WP1130 on DUB activity in treated cells, cell lysates from control and treated cells were incubated with ubiquitin-AMC and fluorescence generated as a consequence of substrate cleavage was measured as an indicator of DUB activity.
# The effect of WP1130 treatment on in vitro deubiquitination/disassembly of purified K48-linked or K63-linked polyubiquitin chains was evaluated. Lysates from WP1130 treated (2 hr) or untreated cells were incubated with 1 μg of unanchored polyubiquitin chains for 5, 10 and 15 min at 37° C.
# Mcl1 = assay: Western blot of Mcl-1 levels; format: cell-based
# Procedure: Total cell lysates were prepared by boiling and sonicating cell pellets in 1× Laemmli reducing sample buffer. To prepare detergent soluble and insoluble fractions, cells were lysed in cold isotonic lysis buffer [10 mM Tris-HCl (pH 7.5), 0.5% Triton X-100, 150 mM NaCl along with Mini-Complete and PhosSTOP] for 15 min on ice and centrifuged 10 min at 20,000 RCF. The clarified supernatant was used as the detergent soluble cell fraction. The residual pellet was washed and extracted in Laemmli reducing sample buffer and briefly sonicated to derive the detergent insoluble fraction. Equal volumes of cellular lysate or equal protein amounts were electrophoresed on SDS-PAGE gels and transferred to nitrocellulose membranes (Whatmann, Dassel, Germany). Proteins were detected by immunoblotting.
# as §1, with “Equal volumes of cellular lysate or equal protein amounts were electrophoresed on SDS-PAGE gels.” left out
# UCH37 = biological target: T1, UCH37 (Homo sapiens, UniProt Q9Y5K5); assay: HA-UbVs labeling of UCH37; format: cell-based; settings: Z138 cells, 1, 5 or 10 μM, 1 hour
# T1 construct: endogenous in cells; host or cells: Z138
# T1 sequence (Q9Y5K5 whole entry): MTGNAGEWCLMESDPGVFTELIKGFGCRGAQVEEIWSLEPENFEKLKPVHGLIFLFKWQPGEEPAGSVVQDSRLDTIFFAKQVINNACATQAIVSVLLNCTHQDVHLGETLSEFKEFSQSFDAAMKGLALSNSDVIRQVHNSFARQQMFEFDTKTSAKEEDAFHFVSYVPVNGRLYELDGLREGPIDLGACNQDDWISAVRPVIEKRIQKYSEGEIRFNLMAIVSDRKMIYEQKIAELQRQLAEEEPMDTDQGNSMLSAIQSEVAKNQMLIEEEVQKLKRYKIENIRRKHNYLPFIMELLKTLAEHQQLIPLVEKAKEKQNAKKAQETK
# Procedure: To assay for changes in activity of cellular deubiquitinase enzymes, Z138 and HEK293 cells were lysed in DUB buffer (50 mM Tris pH 7.4, 5 mM MgCl2, 150 mM NaCl) for 10 min at 4° C. The lysates were centrifuged at 20,000 RFC for 10 min and the supernatant was used for DUB labeling. Equal amounts of lysate were incubated with 500 ng of HA-UbVs for 1 hr at room temperature, followed by boiling in reducing sample buffer and resolving by SDS-PAGE. After protein transfer to nitrocellulose membranes, HA immunoblotting was used to detect DUB labeling.
# Hemagglutinin-tagged ubiquitin vinyl methyl sulfone (HA-UbVs) acts as a DUB suicide substrate, forming a covalent adduct with active DUB enzymes. Specific cellular DUBs can be identified by anti-HA blotting, as previously shown in various cell types. Changes in specific DUB activities are measurable by monitoring HA-labeling in lysates from control and treated cells. Z138 cells were treated with WP1130 at 1, 5, or 10 μM or AG490 at 250 μM for 1 hours and lysed. 20 μg of clarified supernatant was incubated with 200 nM of HA-UbVS for 1 hr at 37° C. […] An in vitro analysis using cell lysates was performed to investigate direct DUB inhibition by WP1130. Briefly, untreated Z138 cell lysates were incubated with 5 μM WP1130 or vehicle alone for one hour at 37° C., followed by labeling with HA-UbVs.
smiles,measurement,setting,value
CCC[C@H](NC(=O)/C(C#N)=C/c1cccc(Br)n1)c1ccccc1 [WP1130],block of virus infection,[1],not
same,tumor growth in vivo,[2],effectively suppresses tumor growth
same,p53 protein levels,p53,increase
same,Log inhibition by plaque assay,Sindbis virus,2-2.5 log
same,Log inhibition by plaque assay,Sindbis virus; listed as HWP1130,2 log
same,Log inhibition by plaque assay,La Crosse virus (LaCV),2-2.5 log
same,Log inhibition by plaque assay,La Crosse virus (LaCV); listed as HWP1130,2.5 log
same,Ub-AMC hydrolyzing activity of lysates from treated cells,"cellular DUB activity; CML cells, WP1130 1-8 hours",limited effects
same,reduction of DUB activity (ubiquitin-AMC),"cellular DUB activity; Z138 cells, 5 μM WP1130 or 50 nM bortezomib, by 4 hours",~50%
same,disassembly of K48-/K63-linked polyubiquitin chains by lysates,cellular DUB activity; lysates from cells treated 2 hr,limited disassembly
same,MCL-1 levels,Mcl1; Z138 cells,rapid decline
same,Mcl-1 levels,Mcl1; imatinib sensitive and resistant CML cells,reduced
same,HA-UbVS labeling of UCH37,UCH37,dose-dependent and time reduction in the labeling
